In US20240217953A1, “BICYCLIC SUBSTITUTED AROMATIC CARBOXYLIC ACID COMPOUNDS” (CHIA TAI TIANQING PHARMACEUTICAL GROUP CO., LTD., priority 2021, published 2024):

Key:
[1] = molecular target: complement alternative pathway in human serum; assay: Inhibition of Wieslab complement alternative pathway activation (enzyme activity determination); type: biochemical; conditions: human serum diluted 1:23, Wieslab alternative pathway kit, absorbance at 405 nm; read-out: IC50 for alternative pathway membrane attack complex (AP MAC)
Description: To determine the inhibitory activity of the test compounds against the complement alternative pathway in human serum by using a Wieslab complement system alternative pathway kit.
The serum was diluted with a diluent (1:23). Drugs were added to the diluted serum in 8 concentration gradients, with the highest concentration of 10 mM or 50 mM and 5-fold gradient dilution. The resulting mixture was incubated at room temperature for 15 min. The compound and the serum mixture were added to a 96-well plate (100 μL/well) provided in the kit and activated at 37° C. for 1 h. The mixture was washed three times with a washing buffer. The detection antibody (100 μL) provided in the kit was added and the mixture was incubated at room temperature for 30 min. The mixture was washed three times with a washing buffer. A substrate (100 μL) was added and the mixture was incubated at room temperature for 30 min. The absorbance at 405 nm was measured using a microplate reader.

[2] = molecular target: human complement Factor B protein (Homo sapiens, UniProt P00751); assay: Human complement Factor B protein binding determination (TR-FRET method); conditions: biotinylated Factor B 25 nM, Cy5-labeled probe 75 nM, PBS pH 7.4, 2 h
human complement Factor B protein, sequence (P00751 26-764): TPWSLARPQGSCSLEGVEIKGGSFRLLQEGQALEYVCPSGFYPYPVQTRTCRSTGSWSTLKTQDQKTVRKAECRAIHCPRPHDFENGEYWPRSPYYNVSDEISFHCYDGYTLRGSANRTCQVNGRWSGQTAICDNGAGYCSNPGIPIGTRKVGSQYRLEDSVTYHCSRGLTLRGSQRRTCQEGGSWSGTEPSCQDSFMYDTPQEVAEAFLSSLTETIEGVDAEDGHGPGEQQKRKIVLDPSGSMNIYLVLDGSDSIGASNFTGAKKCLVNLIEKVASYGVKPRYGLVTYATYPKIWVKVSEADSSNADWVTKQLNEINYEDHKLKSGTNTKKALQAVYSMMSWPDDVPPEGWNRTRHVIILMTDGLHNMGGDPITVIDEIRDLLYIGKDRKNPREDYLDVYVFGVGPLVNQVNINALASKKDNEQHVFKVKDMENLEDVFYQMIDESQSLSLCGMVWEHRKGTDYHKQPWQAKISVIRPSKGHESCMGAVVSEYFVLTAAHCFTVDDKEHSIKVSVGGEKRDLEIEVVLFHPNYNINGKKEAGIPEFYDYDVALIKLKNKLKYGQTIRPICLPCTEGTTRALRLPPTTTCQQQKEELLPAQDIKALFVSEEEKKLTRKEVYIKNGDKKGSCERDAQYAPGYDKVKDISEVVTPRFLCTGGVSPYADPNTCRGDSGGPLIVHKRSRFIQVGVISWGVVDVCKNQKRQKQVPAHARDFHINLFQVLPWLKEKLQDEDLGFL
Description: To determine the binding activity of the test compounds to human complement Factor B protein by using TR-FRET method.
Drugs were added to phosphate buffered saline PBS (pH 7.4) starting at 10 μM with 4-fold dilution and 10 concentrations in total. […] Time-resolved fluorescence resonance energy transfer (TR-FRET) data was measured using 330 nm as the excitation wavelength and 665 nm as the emission wavelength.

[3] = Pharmacokinetic study in rats; type: in vivo; conditions: rat; male SD rats, oral intragastric administration, 10 mg/kg, plasma
Description: To determine the drug concentration in the plasma of the test animals (male SD rats) at different time points after oral intragastric administration of the compounds disclosed herein by an LC/MS/MS method. To investigate the pharmacokinetic performance of the compounds disclosed herein in rats and to evaluate the pharmacokinetic characteristics.
Healthy male rats weighing 200-300 g, 2 rats in each group.
The compound disclosed herein was formulated into a 1 mg/mL clear solution with an aqueous solution of 0.5% MC (4000 cP)/0.5% Tween 80. Rats, after fasting overnight, were subjected to oral intragastric administration at a dose of 10 mg/kg. Blood was collected before administration and 0.25, 0.5, 1, 2, 4, 7, and 24 h after the administration, placed in heparin anticoagulation tubes, and centrifuged at 7000 rpm (5204 g) at 4° C. The plasma was separated and stored at −80° C. Four hours after administration, feeding was resumed. LC/MS/MS method was used to determine the content of the test compound in the plasma of the rats after oral administration. The plasma samples were analyzed after pretreatment to precipitate proteins.

Row | SMILES | IC50 [1] [nM] | IC50 [2] [nM] | further results
1 | COc1cc(C)c2[nH]ccc2c1CN1C2CCCC1(c1ccc(C(=O)O)cc1)CC2 (single isomer, unassigned) [Compound 7A] | < 100 | < 100 | –
2 | CCOC1CC2CCC(c3ccc(C(=O)O)nc3)(C1)N2Cc1c(OC)cc(C)c2[nH]ccc12 (stereo not drawn) [Compound 11] | – | < 100 | –
3 | CCOC1CC2CCC(c3ccc(C(=O)O)cn3)(C1)N2Cc1c(OC)cc(C)c2[nH]ccc12 (single isomer, unassigned) [Compound 9A] | < 100 | < 100 | –
4 | COc1cc(C)c2[nH]ccc2c1CN1CCC2CC1(c1ccc(C(=O)O)cc1)CCN2CC(F)F (stereo not drawn) [Compound 3] | < 100 | – | –
5 | COc1cc(C)c2[nH]ccc2c1CN1CCC2CC1(c1ccc(C(=O)O)cc1)CCN2CC(F)(F)F (stereo not drawn) [Compound 2] | < 100 | – | AUC(0-t) [3]: 14.7 µM·h; Cmax [3]: 3.25 µM; Tmax [3]: 0.5 h; half-life [3]: 4.65 h
6 | COc1cc(C)c2[nH]ccc2c1CN1C2CCC1(c1ccc(C(=O)O)cc1)CC(C)C2 (stereo not drawn) [Compound 12] | – | < 100 | –
